Data: US12208088B2 (Genentech, Inc., priority 2018, dated 2025)
Counter-ions that a name gives are not always drawn.

Biological target: HPK1 (Homo sapiens (Human), UniProt Q92918)
Assay: HPK1 Lantha binding assay ("Lanth")
Conditions: binding assays; Morrison Ki fit
Method in brief: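 TR-FRET binding competition using 2 nM HPK1, 2 nM Eu-anti-GST antibody and 15 nM Tracer222 at 23 °C. Compound was incubated 1 h with enzyme and antibody, then 1 h after tracer addition, with an 11-point 5-fold dilution series. Ki obtained from a Morrison fit that corrects for tracer concentration and Kd.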

Chain of HPK1 (Q92918 1-346 limits assumed): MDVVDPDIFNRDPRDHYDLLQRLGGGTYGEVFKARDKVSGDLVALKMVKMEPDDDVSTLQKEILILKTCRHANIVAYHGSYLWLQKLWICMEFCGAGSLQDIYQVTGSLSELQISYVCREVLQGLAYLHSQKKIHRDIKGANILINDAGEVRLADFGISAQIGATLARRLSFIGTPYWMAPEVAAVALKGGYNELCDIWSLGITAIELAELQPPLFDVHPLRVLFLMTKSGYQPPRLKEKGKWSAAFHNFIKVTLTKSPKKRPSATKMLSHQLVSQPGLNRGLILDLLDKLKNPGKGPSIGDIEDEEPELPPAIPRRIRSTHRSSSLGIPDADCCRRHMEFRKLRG

Compound | Ki [µM]
CO[C@H]1C[C@]2(CNc3ncc(-c4ccc(N)c(C(=O)N(C)C)c4F)c(Cl)c32)C[C@@H]1O (stereo in doubt) [Compound 140b, 6-Amino-3-((1S,3R,4R)-4′-chloro-3-hydroxy-4-methoxy-1′,2′-dihydrospiro[cyclopentane-1,3′-pyrrolo[2,3-b]pyridin]-5′-yl)-2-fluoro-N,N-dimethylbenzamide] | 0.0625
Cc1c(-c2ccc(N)c(C(=O)N(C)C)c2F)cnc2c1C1(CC1)CN2 [Compound 30, 6-Amino-2-fluoro-N,N-dimethyl-3-(4′-methyl-1′,2′-dihydrospiro[cyclopropane-1,3′-pyrrolo[2,3-b]pyridin]-5′-yl)benzamide] | 0.0539
Cc1c(CC#N)ccnc1-c1cc(N)cc(-c2cnc3c(c2Cl)[C@]2(CC[C@](C)(C#N)C2)CN3)c1 (single isomer, unassigned) [Compound 274b] | 0.0009
NC(=O)CCn1cc(-c2cnc3c(c2Cl)C2(CC=CC2)CN3)cn1 [Compound 311, 3-(4-(4′-Chloro-1′,2′-dihydrospiro[cyclopentane-1,3′-pyrrolo[2,3-b]pyridin]-3-en-5′-yl)-1H-pyrazol-1-yl)propanamide] | 0.161
Cc1c(CC#N)ccnc1-c1cccc(-c2cnc3c(c2Cl)[C@@]2(CC[C@@](C)(C#N)C2)CN3)c1F (single isomer, unassigned) [Compound 266b] | 0.0039
CC(=O)Nc1ccc(-c2cnc3c(c2)C2(CC2)CN3)cc1C(F)(F)F [Compound 64, N-(4-(1′,2′-Dihydrospiro[cyclopropane-1,3′-pyrrolo[2,3-b]pyridin]-5′-yl)-2-(trifluoromethyl)phenyl)acetamide] | 0.0891
C[C@@H]1C[C@@]12CNc1ncc(-c3c[nH]c4c(N5CCNCC5=O)cccc34)cc12 (relative stereo) [Compound 306a, 1-(3-((1R,2R)-2-methyl-1′,2′-dihydrospiro[cyclopropane-1,3′-pyrrolo[2,3-b]pyridin]-5′-yl)-1H-indol-7-yl)piperazin-2-one] | 0.0432
N#Cc1ccc2[nH]cc(-c3cnc4c(c3Cl)[C@]3(CC[C@H](O)CC3)CN4)c2c1 [Compound 325a, 3-((1s,4s)-4′-Chloro-4-hydroxy-1′,2′-dihydrospiro[cyclohexane-1,3′-pyrrolo[2,3-b]pyridin]-5′-yl)-1H-indole-5-carbonitrile] | 0.0407
c1nnc(-c2ccc3[nH]cc(-c4cnc5c(c4)C4(CC4)CN5)c3c2)o1 [Compound 334, 2-(3-(1′,2′-Dihydrospiro[cyclopropane-1,3′-pyrrolo[2,3-b]pyridin]-5′-yl)-1H-indol-5-yl)-1,3,4-oxadiazole Formate Salt] | 0.048
CN(C)C(=O)c1c(N)ccc(-c2cnc3c(c2Cl)[C@@]2(CN3)C[C@@H]2c2ccccc2)c1F (relative stereo) [Compound 201a, 6-Amino-3-((1R,2R)-4′-chloro-2-phenyl-1′,2′-dihydrospiro[cyclopropane-1,3′-pyrrolo[2,3-b]pyridin]-5′-yl)-2-fluoro-N,N-dimethylbenzamide] | 0.00358
CC[C@H]1C[C@]12CNc1ncc(-c3ccc(N)c(C(=O)N(C)C)c3F)cc12 (single isomer, unassigned) [Compound 243d] | 0.0251
CCS(=O)(=O)c1ccc(-c2cnc3c(c2Cl)C2(CC=CC2)CN3)cc1 [Compound 187, 4′-Chloro-5′-(4-(ethylsulfonyl)phenyl)-1′,2′-dihydrospiro[cyclopentane-1,3′-pyrrolo[2,3-b]pyridin]-3-ene] | 0.3
Cn1cccc(-c2cccc(-c3cnc4c(c3Cl)C3(CC[C@@H](O)C3)CN4)c2)c1=O (single isomer, unassigned) [Compound 68a] | 0.0179
Nc1ccc(-c2cnc3c(c2Cl)C2(CC=CC2)CN3)c(F)c1 [Compound 225, 4-(4′-Chloro-1′,2′-dihydrospiro[cyclopentane-1,3′-pyrrolo[2,3-b]pyridin]-3-en-5′-yl)-3-fluoroaniline] | 0.363
C[C@@H]1C[C@@]12CNc1ncc(-c3ccc(N)c(C(=O)N(C)C)c3F)cc12 [Compound 86c, 6-Amino-2-fluoro-N,N-dimethyl-3-((1R,2R)-2-methyl-1′,2′-dihydrospiro[cyclopropane-1,3′-pyrrolo[2,3-b]pyridin]-5′-yl)benzamide] | 0.00325
CN(C)C(=O)c1nc(-c2cnc3c(c2Cl)[C@]2(CC[C@](C)(C#N)C2)CN3)ccc1N [Compound 288, 3-Amino-6-((1R,3 S)-4′-chloro-3-cyano-3-methyl-1′,2′-dihydrospiro[cyclopentane-1,3′-pyrrolo[2,3-b]pyridin]-5′-yl)-N,N-dimethylpicolinamide] | 0.016
CC(C)(O)c1ccc(-c2cnc3c(c2Cl)C2(CC=CC2)CN3)cc1 [Compound 182, 2-(4-(4′-Chloro-1′,2′-dihydrospiro[cyclopentane-1,3′-pyrrolo[2,3-b]pyridin]-3-en-5′-yl)phenyl)propan-2-ol] | 0.829
Clc1c(-c2cnn(Cc3ccccc3)c2)cnc2c1C1(CC=CC1)CN2 [Compound 323, 5′-(1-Benzyl-1H-pyrazol-4-yl)-4′-chloro-1′,2′-dihydrospiro[cyclopentane-1,3′-pyrrolo[2,3-b]pyridin]-3-ene] | 0.603
Cn1cc([C@H]2CCCCN2C(=O)c2cccc(-c3cnc4c(c3Cl)C3(CC=CC3)CN4)c2F)cn1 (single isomer, unassigned) [Compound 240a] | 0.00387
COc1c(-c2c[nH]c3ccc(C#N)cc23)cnc2c1C1(CC1)CN2 [Compound 315, 3-(4′-Methoxy-1′,2′-dihydrospiro[cyclopropane-1,3′-pyrrolo[2,3-b]pyridin]-5′-yl)-1H-indole-5-carbonitrile] | 0.0344

Continued by falling Ki, values first:

Ki [µM] | Compound
0.447 | O=C(c1ccc(-c2cnc3c(c2Cl)C2(CC=CC2)CN3)cc1)N1CCOCC1 [Compound 231, (4-(4′-Chloro-1′,2′-dihydrospiro[cyclopentane-1,3′-pyrrolo[2,3-b]pyridin]-3-en-5′-yl)phenyl)(morpholino)methanone]
0.436 | COCCc1ccc(-c2cnc3c(c2Cl)C2(CC=CC2)CN3)cc1 [Compound 223, 4′-Chloro-5′-(4-(2-methoxyethyl)phenyl)-1′,2′-dihydrospiro[cyclopentane-1,3′-pyrrolo[2,3-b]pyridin]-3-ene]
0.308 | Clc1c(-c2ccc(COC3CCOCC3)cc2)cnc2c1C1(CC=CC1)CN2 [Compound 220, 4′-Chloro-5′-(4-(((tetrahydro-2H-pyran-4-yl)oxy)methyl)phenyl)-1′,2′-dihydrospiro[cyclopentane-1,3′-pyrrolo[2,3-b]pyridin]-3-ene]
0.122 | CC1Nc2ncc(-c3ccc(N)c(C(=O)N(C)C)c3F)cc2C12CC2 (centres unmarked) [Compound 15, 6-Amino-2-fluoro-N,N-dimethyl-3-(2′-methyl-1′,2′-dihydrospiro[cyclopropane-1,3′-pyrrolo[2,3-b]pyridin]-5′-yl)benzamide]
0.0644 | CC(=O)Nc1cc(C#N)cc2c(-c3cnc4c(c3)C3(CC3)CN4)cn(C)c12 [Compound 54, N-(5-Cyano-3-(1′,2′-dihydrospiro[cyclopropane-1,3′-pyrrolo[2,3-b]pyridin]-5′-yl)-1-methyl-1H-indol-7-yl)acetamide]
0.054 | CN(C)C(=O)c1c(N)ccc(-c2cnc3c(c2Cl)[C@]2(CC[C@H](n4nccc4C(F)(F)F)C2)CN3)c1F [Compound 169a, 6-Amino-3-((1R,3S)-4′-chloro-3-(5-(trifluoromethyl)-1H-pyrazol-1-yl)-1′,2′-dihydrospiro[cyclopentane-1,3′-pyrrolo[2,3-b]pyridin]-5′-yl)-2-fluoro-N,N-dimethylbenzamide]
0.0466 | C[C@H]1Nc2ncc(-c3ccc(N)c(C(=O)N(C)C)c3F)cc2C12CC2 (single isomer, unassigned) [Compound 128a]
0.0463 | O=C1COCCN1c1cccc2c(-c3cnc4c(c3Cl)C3(CC3)CN4)c[nH]c12 [Compound 302, 4-(3-(4′-Chloro-1′,2′-dihydrospiro[cyclopropane-1,3′-pyrrolo[2,3-b]pyridin]-5′-yl)-1H-indol-7-yl)morpholin-3-one]
0.0396 | CN(C)C(=O)c1c(N)ccc(-c2cnc3c(c2Cl)[C@]2(CC[C@@H](O)CC2)CN3)c1F [Compound 144a, 6-Amino-3-((1r,4r)-4′-chloro-4-hydroxy-1′,2′-dihydrospiro[cyclohexane-1,3′-pyrrolo[2,3-b]pyridin]-5′-yl)-2-fluoro-N,N-dimethylbenzamide]
0.0376 | CN(CCO)C(=O)c1cccc(-c2cnc3c(c2)C2(CC2)CN3)c1F [Compound 12, 3-(1′,2′-Dihydrospiro[cyclopropane-1,3′-pyrrolo[2,3-b]pyridin]-5′-yl)-2-fluoro-N-(2-hydroxyethyl)-N-methylbenzamide]
0.0172 | N#Cc1ccc2[nH]cc(-c3cnc4c(c3)C3(CC3)CN4)c2c1 [Compound 307, 3-(1′,2′-Dihydrospiro[cyclopropane-1,3′-pyrrolo[2,3-b]pyridin]-5′-yl)-1H-indole-5-carbonitrile]
0.00675 | CN(C)C(=O)c1c(N)ccc(-c2cnc3c(c2Cl)[C@]2(CC[C@H](Oc4ccccn4)C2)CN3)c1F (relative stereo) [Compound 173a, 6-Amino-3-((1R,3S)-4′-chloro-3-(pyridin-2-yloxy)-1′,2′-dihydrospiro[cyclopentane-1,3′-pyrrolo[2,3-b]pyridin]-5′-yl)-2-fluoro-N,N-dimethylbenzamide]
0.00553 | CN(C)C(=O)c1c(N)ccc(-c2cnc3c(c2Cl)[C@]2(CC[C@H](C#N)C2)CN3)c1F (relative stereo) [Compound 91a, 6-Amino-3-((1R,3S)-4′-chloro-3-cyano-1′,2′-dihydrospiro[cyclopentane-1,3′-pyrrolo[2,3-b]pyridin]-5′-yl)-2-fluoro-N,N-dimethylbenzamide]
0.00392 | CC(C)[C@H]1C[C@@]12CNc1ncc(-c3ccc(N)c(C(=O)N(C)C)c3F)cc12 (single isomer, unassigned) [Compound 234a]
0.00039 | Cc1c(CC#N)ccnc1-c1cccc(-c2cnc3c(c2Cl)[C@@]2(CC[C@@](C)(C(N)=O)C2)CN3)c1F (single isomer, unassigned) [Compound 267b]
